Test results as given in the NIST ThermoML archive (doi:10.1016/j.tca.2006.10.025).

Key:
[1] = molar heat capacity at constant pressure; xn = mol fraction of the nth substance listed; conditions: 303.15 K, 101 kPa, Liquid, Small sample (50 mg) DSC
[2] = excess molar enthalpy (molar enthalpy of mixing); xn = mol fraction of the nth substance listed; conditions: 303.15 K, 101 kPa, Liquid, Flow calorimetry
[3] = 303.15 K; 101.33 kPa; Liquid; Vibrating tube method
[4] = molar heat capacity at constant pressure; conditions: 101.33 kPa, Liquid, Small sample (50 mg) DSC

C[S+](C)[O-] [dimethyl sulfoxide] + CO
Conditions | excess molar enthalpy [kJ/mol] | molar heat capacity at constant pressure [J/K/mol]
[1], x1 = 0.0308 | – | 84
[1], x1 = 0.061 | – | 85.8
[1], x1 = 0.1103 | – | 88.3
[1], x1 = 0.197 | – | 93.9
[1], x1 = 0.2818 | – | 97.8
[1], x1 = 0.3571 | – | 102.3
[1], x1 = 0.4676 | – | 109.7
[1], x1 = 0.5886 | – | 116.1
[1], x1 = 0.6833 | – | 124.6
[1], x1 = 0.8398 | – | 137.5
[1], x1 = 0.9068 | – | 142.5
[1], x1 = 0.923 | – | 144.6
[2], x1 = 0.0176 | 0.008 | –
[2], x1 = 0.0233 | 0.009 | –
[2], x1 = 0.0455 | 0.003 | –
[2], x1 = 0.0667 | -0.011 | –
[2], x1 = 0.087 | -0.032 | –
[2], x1 = 0.1251 | -0.081 | –
[2], x1 = 0.1601 | -0.133 | –
[2], x1 = 0.2223 | -0.227 | –
[2], x1 = 0.276 | -0.298 | –
[2], x1 = 0.3639 | -0.38 | –
[2], x1 = 0.4619 | -0.428 | –
[2], x1 = 0.5336 | -0.433 | –
[2], x1 = 0.6318 | -0.412 | –
[2], x1 = 0.6959 | -0.373 | –
[2], x1 = 0.7744 | -0.317 | –
[2], x1 = 0.8207 | -0.253 | –
[2], x1 = 0.8728 | -0.185 | –
[2], x1 = 0.9321 | -0.097 | –

CCO [ethanol]
Conditions | mass density [kg/m3]
[3] | 780.79

[4]
Conditions | molar heat capacity at constant pressure [J/K/mol]
288.15 K | 108.8
293.15 K | 111
298.15 K | 113.5
303.15 K | 115.7
308.15 K | 118.6
313.15 K | 121.6
318.15 K | 125.1
323.15 K | 128.2

CCCCCCO [hexan-1-ol]
Conditions | mass density [kg/m3]
[3] | 811.39

[4]
Conditions | molar heat capacity at constant pressure [J/K/mol]
288.15 K | 231.6
293.15 K | 237.5
298.15 K | 241.3
303.15 K | 246
308.15 K | 251
313.15 K | 256.2
318.15 K | 262.5
323.15 K | 268.9

CCCCCCO [hexan-1-ol] + C[S+](C)[O-]
Conditions | excess molar enthalpy [kJ/mol] | molar heat capacity at constant pressure [J/K/mol]
[1], x2 = 0.1102 | – | 239.9
[1], x2 = 0.1949 | – | 231.7
[1], x2 = 0.2888 | – | 222.5
[1], x2 = 0.3759 | – | 216.5
[1], x2 = 0.4388 | – | 211.5
[1], x2 = 0.535 | – | 199.2
[1], x2 = 0.5365 | – | 199.4
[1], x2 = 0.6311 | – | 190.4
[1], x2 = 0.7339 | – | 181.8
[1], x2 = 0.8062 | – | 171
[1], x2 = 0.8704 | – | 164.7
[1], x2 = 0.9359 | – | 158.8
[2], x2 = 0.0682 | 0.361 | –
[2], x2 = 0.1277 | 0.64 | –
[2], x2 = 0.1801 | 0.847 | –
[2], x2 = 0.2265 | 1.01 | –
[2], x2 = 0.3053 | 1.2 | –
[2], x2 = 0.3694 | 1.3 | –
[2], x2 = 0.4677 | 1.36 | –
[2], x2 = 0.5394 | 1.36 | –
[2], x2 = 0.6374 | 1.28 | –
[2], x2 = 0.7251 | 1.17 | –
[2], x2 = 0.7786 | 1.04 | –
[2], x2 = 0.8406 | 0.865 | –
[2], x2 = 0.8755 | 0.746 | –
[2], x2 = 0.9134 | 0.56 | –
[2], x2 = 0.9336 | 0.454 | –
[2], x2 = 0.9547 | 0.331 | –
[2], x2 = 0.9768 | 0.181 | –

CO [methanol]
Conditions | mass density [kg/m3]
[3] | 781.81

[4]
Conditions | molar heat capacity at constant pressure [J/K/mol]
288.15 K | 78.1
293.15 K | 79.3
298.15 K | 81
303.15 K | 82.2
308.15 K | 83.4
313.15 K | 85.6
318.15 K | 87.5
323.15 K | 89.5

CCCCCCCCO [octan-1-ol]
Conditions | mass density [kg/m3]
[3] | 818.24

[4]
Conditions | molar heat capacity at constant pressure [J/K/mol]
288.15 K | 294.2
293.15 K | 300.3
298.15 K | 304.4
303.15 K | 309.2
308.15 K | 314.4
313.15 K | 319.5
318.15 K | 326.2
323.15 K | 332.7

CCCCCCCCO [octan-1-ol] + C[S+](C)[O-]
Conditions | excess molar enthalpy [kJ/mol] | molar heat capacity at constant pressure [J/K/mol]
[1], x2 = 0.0953 | – | 296.5
[1], x2 = 0.1847 | – | 284.2
[1], x2 = 0.3137 | – | 264.7
[1], x2 = 0.3478 | – | 256.2
[1], x2 = 0.4629 | – | 241.9
[1], x2 = 0.5855 | – | 221.6
[1], x2 = 0.6299 | – | 215.1
[1], x2 = 0.7302 | – | 200.6
[1], x2 = 0.7656 | – | 193.2
[1], x2 = 0.842 | – | 182.1
[1], x2 = 0.8956 | – | 173.1
[1], x2 = 0.9603 | – | 162.4
[2], x2 = 0.0847 | 0.47 | –
[2], x2 = 0.1562 | 0.815 | –
[2], x2 = 0.2173 | 1.07 | –
[2], x2 = 0.2702 | 1.21 | –
[2], x2 = 0.3571 | 1.39 | –
[2], x2 = 0.4254 | 1.47 | –
[2], x2 = 0.5262 | 1.48 | –
[2], x2 = 0.5968 | 1.47 | –
[2], x2 = 0.6896 | 1.39 | –
[2], x2 = 0.7692 | 1.27 | –
[2], x2 = 0.8163 | 1.14 | –
[2], x2 = 0.8696 | 0.956 | –
[2], x2 = 0.8988 | 0.814 | –
[2], x2 = 0.9302 | 0.626 | –
[2], x2 = 0.9467 | 0.507 | –
[2], x2 = 0.9638 | 0.363 | –
[2], x2 = 0.9816 | 0.196 | –

CCCO [propan-1-ol]
Conditions | mass density [kg/m3]
[3] | 795.48

[4]
Conditions | molar heat capacity at constant pressure [J/K/mol]
288.15 K | 139
293.15 K | 142.3
298.15 K | 144.9
303.15 K | 148.3
308.15 K | 151
313.15 K | 153.7
318.15 K | 157.1
323.15 K | 160.1
